≈ marks a conversion by molar mass, not a printed value. Where “and” joins values, the source holds several entries; their conditions need not be identical. Equal values may be shown once. Read-outs that look alike come from different tables or passages of the source. Where a SMILES comes first, the peptide text is derived from it. Where no end group is shown, it is not given here. [ ]: non-standard residue; d: D form.
Columns and labels:
E. coli HB101 = test: microbe, parasite or virus in culture; type: cell-based, Escherichia coli; details: for MBC / MIC: Escherichia coli, HB101
Source text: (§1) The bacteria used in this study included Streptococcus mutans ATCC10449, Streptococcus mutans AU 159, Streptococcus mutans GS-5, Streptococcus mutans GS-5 mutant (^gtf BCD), Streptococcus gordonii Challis, Porphyromonas gingivalis W50, Porphyromonas gingivalis 381, A. actinomycetemcomitans NCTC 9710, Pseudomonas aeruginosa ATCC 17648, and Escherichia coli HB101. One quarter strength (25%) of brain heart infusion broth (BHI, DIFCO Laboratories, Detroit, Mich.) was used for the growth of S. mutans, S. gordonii, A. actinomycetemcomitans, Ps. aeruginosa, and E. coli. For growth of P. gingivalis, tryptic soy broth-yeast extract medium (TSBY, DIFCO Laboratories, Detroit, Mich.) supplemented with cysteine hydrochloride (0.05%), menadione (0.02 μg/ml), hemin (5 μg/ml), and potassium nitrate (0.02%) was used. All bacteria were cultured at 37° C.; Ps. aeruginosa and E. coli were grown aerobically, and the other bacteria, anaerobically. To prepare bacterial cell suspension for antibacterial activity assays, each overnight culture was harvested by centrifuge (3783 g, 10 min), washed once with 10 mM sodium phosphate-buffered saline (PBS, pH 7.2), resuspended in PBS and adjusted to a concentration of 1×10^6 cells/mL.
(§2) MICs of the peptides were determined by broth microdilution method as previously described (5). Briefly, two-fold serial dilutions of each peptide were prepared with 25% BHI medium at a volume of 200 μl per well in 96-well flat-bottom microtiter plates (Costar, Cambridge, Mass.). The final concentration of the peptides ranged from 0.78 to 100 μM, and chlorhexidine (CHX), used as a positive control, from 20 to 0.16 μM (10 to 0.078 μg/mL). The microtiter plate was inoculated with bacterial cell suspension with final concentration of 5×10^6 CFU/mL for P. gingivalis and 5×10^5 CFU/mL for the other bacterial species. After incubation at 37° C. for 48 h, the absorbance was measured at 595 nm by using a microplate reader (Model 3550, Bio-Rad, Japan) to assess the cell growth. […] The MIC value represents the median of at least three independent experiments. The minimal bactericidal concentration (MBC) was determined as follows. Aliquot (100 μl) of cell suspension was taken from two wells above MIC, centrifuged, and washed three times with PBS. Then each cell suspension was plated on TSBY agar plate, and bacterial cells were enumerated after incubation at 37° C. for 48 h. The MBC was defined as the lowest concentration of the peptide at which more than 99.9% of cells were killed compared to non-treated control.

S. mutans GS-5 biofilm = type: cell-based, Streptococcus mutans
Procedure: FIG. 11. Effect of peptides on the biofilm formation of S. mutans. The bacterial cells (5×10^5 cfu ml^−1) were inoculated in 96-well microtiter plate containing 25% BHIS medium with different concentration of each agent. Culture without agent was used as no treatment control. After incubation at 37° C. for 24 h, absorbance at 595 nm was recorded to assess the cell growth. Biofilm assay was performed by discarding the supernatants, washing with PBS, fixing with methanol, and staining with CV. The absorbance at 570 nm was recorded to assess the amount of biofilm. The activity was expressed as % of control. Data represents mean and SD of two independent tests with duplicates for each. Empty bar: growth, solid bar: biofilm.
The effect of the peptides on S. mutans in biofilm formation was examined by the microdilution method. This method is similar to the MIC assay for planktonic cells. Two-fold serial dilutions of each peptide were prepared in wells of polystyrene microtiter plates (Microtest tissue culture plate, 96 well, Falcon, Becton Dickinson and Company, N.J.) containing 25% BHI medium supplemented with 1% sucrose (BHIS) at a volume of 200 μl per well. The final concentration of the peptide ranged from 0.78 to 100 μM for each peptide. Chlorhexidine (CHX, 0.078 to 10 μg/mL) was used as the positive control, the medium without drug as the non-treated control, and the medium alone as the blank control. The cells suspension of S. mutans GS-5 was prepared as describe in MIC assay and 20 μl aliquot (final concentration of cells 5×10^5 CFU/mL) was inoculated to the wells of polystyrene microtiter plates. After incubation at 37° C. for 20 h, the culture supernatants from each well were decanted and planktonic cells were removed by washing with PBS, pH 7.2. The biofilm was fixed with methanol for 15 min and then air dried at room temperature. The biofilm was then stained with 0.1% (wt/vol) crystal violet (Sigma) for 5 min. and rinsed thoroughly with water until the control wells appeared colorless. Biofilm formation was quantified by the addition of 200 μl of 95% ethanol to each crystal violet-stained well. The plate was rocked at room temperature for 30 min and the absorbance at 595 nm (A595 nm) was determined with a microplate reader (BioRad Model 3550 Microplate Reader). Percentage of inhibition was calculated with the equation: (1−A595 nm of the test/A595nm of non-treated control)×100.

[1] = tested on: S. mutans GS-5 1-day biofilm; type: cell-based, Streptococcus mutans
Procedure: FIG. 12. Effect of peptides on 1-day biofilm of S. mutans. One-day mature biofilm was prepared as described above. BHI medium supplemented with 1% sucrose (BHIS) with peptides, prepared in another microtiter plate, was then transferred to the biofilm plate. After further incubation at 37° C. for 24 h, the biofilm was fixed, stained, and quantified as describe above. Data represents mean and SD of two independent tests performed in duplicated. Empty bar: growth, solid bar: biofilm.
To examine the effects of the peptides on 1-day mature biofilm, S. mutans GS-5 was inoculated into the wells of another polystyrene microtiter plate containing BHIS at a volume of 200 μl per well. After incubation at 37° C. for 24 h, the culture supernatants from each well were decanted and planktonic cells were removed by washing with PBS. BHIS containing 0.78 to 100 μM peptides, prepared in another microtiter plate, was then transferred to the 1-day biofilm plate, and further incubated at 37° C. for one day. The biofilm was fixed, stained, and quantified as describe above.

P. gingivalis = test: microbe, parasite or virus in culture; type: cell-based, Porphyromonas gingivalis; details: for MBC / MIC: Porphyromonas gingivalis
Source text: as §1, §2

S. mutans = test: microbe, parasite or virus in culture
Source text: as §1, §2

[2] = lowest concentration with 50% or more inhibition of biofilm formation
[3] = lowest concentration with 50% or more eradication of 1-day biofilm
[4] = median of four strains (GS-5, GS-5 gtfBCD, AU 159, ATCC10449), 25% BHI, 48 h
[5] = median of two strains (W 50, 381)

| Compound | MBIC50 (S. mutans GS-5 biofilm) [µg/mL] | MBIC50 (S. mutans GS-5 biofilm; [2]) [µM] | MBEC50 (μg/ml) [1] [µg/mL] | MBEC50 (μM) [1, 3] [µM] | MBC (μM) (E. coli HB101) [µM] | MIC (μM) (E. coli HB101) [µM] | MBIC50 (S. mutans GS-5 biofilm; GS-5 biofilm, 24 h) [µM] | MBEC50 (μM) ([1]; GS-5 1-day biofilm, 24 h) [µM] | MIC (μM) (P. gingivalis) [µM] | MBC (μM) (S. mutans; median of four strains) [µM] | MIC (S. mutans; [4]) [µM] | MIC (μg/ml) (P. gingivalis) [µg/mL] | other results |
| --- | --- | --- | --- | --- | --- | --- | --- | --- | --- | --- | --- | --- | --- |
| [H]/N=C(\N/C(=N/[H])NCCCCCCNC(=N)NC(=N)Nc1ccc(Cl)cc1)Nc1ccc(Cl)cc1 [Chlorhexidine, Chlorhexidine digluconate] | 0.625 | 1.25 | >10 | >20 |  |  |  |  |  |  |  |  | MBC (E. coli HB101; read-out: MBC): 2.5 µM; MBC (E. coli HB101; read-out: MBC (μg/ml)): 1.3 µg/mL; MIC (E. coli HB101; read-out: MIC): 2.5 µM; MIC (E. coli HB101; read-out: MIC (μg/ml)): 1.3 µg/mL; MBC (P. gingivalis; median of two strains (W 50, 381), read-out: MBC): 2.5 µM; MBC (P. gingivalis; median of two strains (W 50, 381), read-out: MBC (μg/ml)): 1.3 µg/mL; MIC (P. gingivalis; median of two strains (W 50, 381), read-out: MIC): 2.5 µM; MIC (P. gingivalis; median of two strains (W 50, 381), read-out: MIC (μg/ml)): 1.2 µg/mL; MBC (S. mutans; Streptococcus mutans): 2.5 µM and 1.2 µg/mL; MIC (S. mutans; Streptococcus mutans): 1.2 µg/mL; MIC (S. mutans; Streptococcus mutans, ATCC10449, 48 h): 2.5 µM |
| CC(C)C[C@@H](NC(=O)[C@@H](CS)NC(=O)[C@@H](CCCCN)NC(=O)[C@@H](Cc1ccc(O)cc1)NC(=O)[C@@H](CO)NC(=O)[C@@H](CCCCN)NC(=O)[C@H](N)CCCNC(=N)N)C(=O)N[C@H](Cc1c[nH]cn1)C(=O)N[C@H](CCCCN)C(=O)N[C@H](CCCNC(=N)N)C(=O)N[C@H](CS)C(=O)N[C@H](CCCNC(=N)N)C(=O)O [MUC7 12-mer-D] (H-[dR][dK][dS][dY][dK][dC][dL][dH][dK][dR][dC][dR]-OH; N-terminus and C-terminus assumed) |  |  |  |  | 12.5 (≈ 19.7 µg/mL) | 12.5 (≈ 19.7 µg/mL) | 6.25 | 25 | 50.0 (≈ 78.9 µg/mL) | 12.5 (≈ 19.7 µg/mL) | 12.5 |  | MBC (μM) (P. gingivalis): 100.0 µM (≈ 158 µg/mL); MBC (μg/ml) (P. gingivalis): 79.0 µg/mL (≈ 50.1 µM) |
| CC(C)C[C@H](NC(=O)[C@H](CS)NC(=O)[C@H](CCCCN)NC(=O)[C@H](Cc1ccc(O)cc1)NC(=O)[C@H](CO)NC(=O)[C@H](CCCCN)NC(=O)[C@@H](N)CCCNC(=N)N)C(=O)N[C@@H](Cc1c[nH]cn1)C(=O)N[C@@H](CCCCN)C(=O)N[C@@H](CCCNC(=N)N)C(=O)N[C@@H](CS)C(=O)N[C@@H](CCCNC(=N)N)C(=O)O [MUC7 12-mer-L] (H-RKSYKCLHKRCR-OH; N-terminus and C-terminus assumed) |  |  |  |  | 25.0 (≈ 39.4 µg/mL) | 25.0 (≈ 39.4 µg/mL) | 12.5 | 50 | >100 | 12.5 (≈ 19.7 µg/mL) | 12.5 | >158 |  |
| AKRHHGYKRKFH [Hsn5 12-mer] |  |  |  |  | 100.0 | 100.0 | 25 | >50 | >100 | 50.0 | 25 | >158 | MBEC50 (μg/ml) ([1]; GS-5 1-day biofilm, 24 h): >78 µg/mL |
| GIGKFLHSAKKFGKAFVGEIMNS [Magainin-II] | 62 | 25 | >125 | >50 | 12.5 | 12.5 |  |  |  | 50.0 | 25 |  | MBC (μg/ml) (E. coli HB101): 30.9 µg/mL; MIC (μg/ml) (E. coli HB101): 30.9 µg/mL; eradication of 1-day developed biofilm ([1]; at or more than MBEC50): eradication was not observed; MIC (μM) (P. gingivalis; [5]): >100 µM; MIC (μg/ml) (P. gingivalis; [5]): >246.9 µg/mL; MIC (S. mutans; median of four strains): 61.7 µg/mL |

From patent US7271239B2, “D-isomers of antimicrobial peptide” (The Research Foundation of State University of New York, priority 2004, dated 2007)
